Data published in patent publication US20250152675A1, “I-TYPE RECOMBINANT COLLAGEN WITH HIGH TRANSDERMAL ABSORBABILITY, AND USE THEREOF” (XI'AN GIANT BIOGENE TECHNOLOLGY CO., LTD, priority 2022, published 2025).
Residues, ends and D or L forms follow the SMILES beside them.

assay: Transdermal penetration through ex vivo mouse skin in a single-chamber diffusion cell, content by BCA kit; format: in vitro ADME, Kunming mice; conditions: collagen peptide 5 mg/ml in 0.9% NaCl, diffusion area 2.0 cm^2, 37.5° C.
Protocol: 1. Preparation of Mouse Skin Ex Vivo 10 Kunming mice of 20 to 22 g with half male and half […] were used in the experiment. After the mice were killed, the hairs on the abdomen were removed. Then the skin on the hair-removed area was peeled off, stripped of fat and tendons, and rinsed repeatedly with distilled water. After being washed, the mouse skins were rinsed with normal saline, then treated with 10% glycerol, and stored at −20° C. for use (use up within 7 days).
Single-chamber diffusion cell: The effective diffusion area of the diffusion cell is 2.0 cm^2, the volume of the receiving cell is 14 ml, the length of the custom-made stirrer is 1.4 cm, and the receiving solution is 0.9% NaCl solution.
The stored mouse skin was taken out, thawed, washed with normal saline, and sandwiched between the receiving chamber and the supplying chamber, with the medicated side facing the supplying chamber and the skin side facing the receiving chamber. The temperature of the water bath system was adjusted to 37.5° C., and the stirring speed was adjusted to 100 rpm/min. 0.9% NaCl solution pre-warmed at 37° C. was added to the receiving chamber and the air bubbles were exhausted, in order to reduce the interference, the inner surface of the mouse skin was firstly contacted with the receiving solution without medication and all the receiving solution was replaced. Then the 27 collagen peptides synthesized were prepared into 5 mg/ml solutions using 0.9% NaCl respectively, which were injected into the supplying chamber and firmly adhere to the mouse skin respectively. After 24 h, part of the receiving solution was absorbed with a syringe as the sample solution to determine the transdermal amount of collagen peptide.
The BCA kit method was used to determine the polypeptide content in the sample solution. […]

| SMILES | 24h penetration amount |
| --- | --- |
| CC(C)[C@H](NC(=O)CNC(=O)[C@H](CCCNC(=N)N)NC(=O)[C@H](CCC(=O)O)NC(=O)CN)C(=O)N[C@@H](CCC(N)=O)C(=O)NCC(=O)N1CCC[C@H]1C(=O)N1CCC[C@H]1C(=O)NCC(=O)N1CCC[C@H]1C(=O)N[C@@H](C)C(=O)NCC(=O)N1CCC[C@H]1C(=O)N[C@@H](CCCNC(=N)N)C(=O)NCC(=O)N[C@@H](C)C(=O)N[C@@H](CC(N)=O)C(=O)NCC(=O)N[C@@H](C)C(=O)N1CCC[C@H]1C(=O)NCC(=O)N[C@@H](CC(N)=O)C(=O)N[C@@H](CC(=O)O)C(=O)NCC(=O)N[C@@H](C)C(=O)N[C@@H](CCCCN)C(=O)NCC(=O)N[C@@H](CC(=O)O)C(=O)N[C@@H](C)C(=O)NCC(=O)N[C@@H](C)C(=O)N1CCC[C@H]1C(=O)NCC(=O)N[C@@H](C)C(=O)N1CCC[C@H]1C(=O)O [compound 27] (H-GERGVQGPPGPAGPRGANGAPGNDGAKGDAGAPGAP-OH; N-terminus and C-terminus assumed) | 2186.24 µg |
| CC(C)[C@H](NC(=O)CNC(=O)[C@H](CCCNC(=N)N)NC(=O)[C@H](CCC(=O)O)NC(=O)CNC(=O)[C@@H]1CCCN1C(=O)[C@H](Cc1ccccc1)NC(=O)CNC(=O)[C@H](CCCNC(=N)N)NC(=O)[C@H](CCC(=O)O)NC(=O)CNC(=O)[C@H](CCCNC(=N)N)NC(=O)[C@H](C)NC(=O)CNC(=O)[C@H](CO)NC(=O)[C@@H]1CCCN1C(=O)CNC(=O)[C@@H]1CCCN1C(=O)[C@H](C)NC(=O)CN)C(=O)N[C@@H](CCC(N)=O)C(=O)NCC(=O)N1CCC[C@H]1C(=O)N1CCC[C@H]1C(=O)NCC(=O)N1CCC[C@H]1C(=O)N[C@@H](C)C(=O)NCC(=O)N1CCC[C@H]1C(=O)N[C@@H](CCCNC(=N)N)C(=O)NCC(=O)N[C@@H](C)C(=O)N[C@@H](CC(N)=O)C(=O)NCC(=O)N[C@@H](C)C(=O)N1CCC[C@H]1C(=O)O [compound 26] (H-GAPGPSGARGERGFPGERGVQGPPGPAGPRGANGAP-OH; N-terminus and C-terminus assumed) | 2054.99 µg |
| CSCC[C@H](NC(=O)[C@@H]1CCCN1C(=O)CNC(=O)[C@@H]1CCCN1C(=O)[C@@H]1CCCN1C(=O)CNC(=O)[C@H](CCCNC(=N)N)NC(=O)[C@H](CCC(=O)O)NC(=O)CNC(=O)[C@H](CO)NC(=O)[C@H](C)NC(=O)CNC(=O)[C@H](CO)NC(=O)[C@@H]1CCCN1C(=O)CNC(=O)[C@H](CCC(N)=O)NC(=O)[C@H](CCCCN)NC(=O)CNC(=O)[C@@H]1CCCN1C(=O)[C@H](CCC(=O)O)NC(=O)CN)C(=O)NCC(=O)N1CCC[C@H]1C(=O)N1CCC[C@H]1C(=O)NCC(=O)N[C@@H](CC(C)C)C(=O)N[C@@H](C)C(=O)NCC(=O)N1CCC[C@H]1C(=O)N1CCC[C@H]1C(=O)NCC(=O)N[C@@H](CCC(=O)O)C(=O)N[C@@H](CO)C(=O)NCC(=O)N[C@@H](CCCNC(=N)N)C(=O)N[C@@H](CCC(=O)O)C(=O)O [compound 23] (H-GEPGKQGPSGASGERGPPGPMGPPGLAGPPGESGRE-OH; N-terminus and C-terminus assumed) | 2323.45 µg |
| C[C@H](NC(=O)CNC(=O)[C@@H](NC(=O)[C@H](C)NC(=O)CNC(=O)[C@H](CC(=O)O)NC(=O)[C@H](CC(N)=O)NC(=O)CNC(=O)[C@H](CCCNC(=N)N)NC(=O)[C@H](C)NC(=O)CNC(=O)[C@H](C)NC(=O)[C@@H]1CCCN1C(=O)CNC(=O)[C@@H]1CCCN1C(=O)[C@H](C)NC(=O)CNC(=O)[C@@H]1CCCN1C(=O)[C@H](CCCNC(=N)N)NC(=O)CNC(=O)[C@H](CCCNC(=N)N)NC(=O)[C@H](CCC(=O)O)NC(=O)CN)[C@@H](C)O)C(=O)N[C@@H](C)C(=O)NCC(=O)N1CCC[C@H]1C(=O)N1CCC[C@H]1C(=O)NCC(=O)N1CCC[C@H]1C(=O)N[C@H](C(=O)NCC(=O)N1CCC[C@H]1C(=O)N[C@@H](C)C(=O)NCC(=O)N1CCC[C@H]1C(=O)N1CCC[C@H]1C(=O)O)[C@@H](C)O [compound 6] (H-GERGRPGAPGPAGARGNDGATGAAGPPGPTGPAGPP-OH; N-terminus and C-terminus assumed) | 2233.35 µg |
| CC[C@H](C)[C@H](NC(=O)CNC(=O)[C@H](CCC(N)=O)NC(=O)[C@@H]1CCCN1C(=O)CNC(=O)[C@@H]1CCCN1C(=O)[C@@H](NC(=O)CNC(=O)[C@@H]1CCCN1C(=O)[C@H](C)NC(=O)CNC(=O)[C@H](C)NC(=O)[C@@H]1CCCN1C(=O)CNC(=O)[C@H](CC(=O)O)NC(=O)[C@H](C)NC(=O)CNC(=O)[C@@H]1CCCN1C(=O)[C@H](CO)NC(=O)CN)[C@@H](C)O)C(=O)N[C@@H](C)C(=O)NCC(=O)N[C@@H](CCC(N)=O)C(=O)N[C@@H](CCCNC(=N)N)C(=O)NCC(=O)N[C@H](C(=O)N[C@H](C(=O)NCC(=O)N[C@@H](CC(C)C)C(=O)N1CCC[C@H]1C(=O)NCC(=O)N[C@@H](CCC(N)=O)C(=O)N[C@@H](CCCNC(=N)N)C(=O)NCC(=O)N[C@@H](CCC(=O)O)C(=O)N[C@@H](CCCNC(=N)N)C(=O)O)C(C)C)C(C)C [compound 19] (H-GSPGADGPAGAPGTPGPQGIAGQRGVVGLPGQRGER-OH; N-terminus and C-terminus assumed) | 2432.23 µg |
| CSCC[C@H](NC(=O)[C@H](CCC(N)=O)NC(=O)CNC(=O)[C@@H]1CCCN1C(=O)[C@H](C)NC(=O)CNC(=O)[C@H](CC(N)=O)NC(=O)[C@H](CCC(=O)O)NC(=O)CN)C(=O)NCC(=O)N1CCC[C@H]1C(=O)N[C@@H](CCCNC(=N)N)C(=O)NCC(=O)N[C@@H](CC(C)C)C(=O)N1CCC[C@H]1C(=O)NCC(=O)N[C@@H](CCC(=O)O)C(=O)N[C@@H](CCCNC(=N)N)C(=O)NCC(=O)N[C@@H](CCCNC(=N)N)C(=O)N1CCC[C@H]1C(=O)NCC(=O)N[C@@H](C)C(=O)N1CCC[C@H]1C(=O)NCC(=O)N1CCC[C@H]1C(=O)N[C@@H](C)C(=O)NCC(=O)N[C@@H](C)C(=O)N[C@@H](CCCNC(=N)N)C(=O)NCC(=O)N[C@@H](CC(N)=O)C(=O)N[C@@H](CC(=O)O)C(=O)NCC(=O)N[C@@H](C)C(=O)N[C@H](C(=O)O)[C@@H](C)O [compound 5] (H-GENGAPGQMGPRGLPGERGRPGAPGPAGARGNDGAT-OH; N-terminus and C-terminus assumed) | 2123.45 µg |
| CC(C)[C@H](NC(=O)[C@H](C)NC(=O)CNC(=O)[C@@H]1CCCN1C(=O)[C@@H]1CCCN1C(=O)CNC(=O)[C@@H]1CCCN1C(=O)[C@@H](NC(=O)CNC(=O)[C@H](CCCNC(=N)N)NC(=O)[C@H](CCC(=O)O)NC(=O)CN)C(C)C)C(=O)NCC(=O)N1CCC[C@H]1C(=O)N[C@@H](C)C(=O)NCC(=O)N[C@@H](CCCCN)C(=O)N[C@@H](CC(=O)O)C(=O)NCC(=O)N[C@@H](CCC(=O)O)C(=O)N[C@@H](C)C(=O)NCC(=O)N[C@@H](C)C(=O)N[C@@H](CCC(N)=O)C(=O)NCC(=O)N1CCC[C@H]1C(=O)N1CCC[C@H]1C(=O)NCC(=O)N1CCC[C@H]1C(=O)N[C@@H](C)C(=O)NCC(=O)N1CCC[C@H]1C(=O)N[C@@H](C)C(=O)NCC(=O)N[C@@H](CCC(=O)O)C(=O)N[C@@H](CCCNC(=N)N)C(=O)O [compound 12] (H-GERGVPGPPGAVGPAGKDGEAGAQGPPGPAGPAGER-OH; N-terminus and C-terminus assumed) | 2613.34 µg |
| CSCC[C@H](NC(=O)CNC(=O)[C@@H]1CCCN1C(=O)[C@H](CC(C)C)NC(=O)CNC(=O)[C@H](C)NC(=O)[C@@H](NC(=O)CNC(=O)[C@@H]1CCCN1C(=O)[C@H](CC(C)C)NC(=O)CNC(=O)[C@H](CCCNC(=N)N)NC(=O)[C@H](C)NC(=O)CNC(=O)[C@H](CCC(N)=O)NC(=O)[C@@H]1CCCN1C(=O)CNC(=O)[C@@H]1CCCN1C(=O)[C@@H]1CCCN1C(=O)CNC(=O)[C@H](CCCNC(=N)N)NC(=O)[C@H](CCC(=O)O)NC(=O)CN)[C@@H](C)O)C(=O)N[C@@H](CCCCN)C(=O)NCC(=O)N[C@@H](Cc1c[nH]cn1)C(=O)N[C@@H](CCCNC(=N)N)C(=O)NCC(=O)N[C@@H](Cc1ccccc1)C(=O)N[C@@H](CO)C(=O)NCC(=O)N[C@@H](CC(C)C)C(=O)N[C@@H](CC(=O)O)C(=O)NCC(=O)N[C@@H](C)C(=O)N[C@@H](CCCCN)C(=O)O [compound 3] (H-GERGPPGPQGARGLPGTAGLPGMKGHRGFSGLDGAK-OH; N-terminus and C-terminus assumed) | 2224.03 µg |
| CC[C@H](C)[C@H](NC(=O)CN)C(=O)N[C@@H](C)C(=O)NCC(=O)N[C@@H](CCC(N)=O)C(=O)N[C@@H](CCCNC(=N)N)C(=O)NCC(=O)N[C@H](C(=O)N[C@H](C(=O)NCC(=O)N[C@@H](CC(C)C)C(=O)N1CCC[C@H]1C(=O)NCC(=O)N[C@@H](CCC(N)=O)C(=O)N[C@@H](CCCNC(=N)N)C(=O)NCC(=O)N[C@@H](CCC(=O)O)C(=O)N[C@@H](CCCNC(=N)N)C(=O)NCC(=O)N[C@@H](Cc1ccccc1)C(=O)N1CCC[C@H]1C(=O)NCC(=O)N[C@@H](CC(C)C)C(=O)N1CCC[C@H]1C(=O)NCC(=O)N1CCC[C@H]1C(=O)N[C@@H](CO)C(=O)NCC(=O)N[C@@H](CCC(=O)O)C(=O)N1CCC[C@H]1C(=O)NCC(=O)N[C@@H](CCCCN)C(=O)N[C@@H](CCC(N)=O)C(=O)NCC(=O)N1CCC[C@H]1C(=O)N[C@@H](CO)C(=O)O)C(C)C)C(C)C [compound 20] (H-GIAGQRGVVGLPGQRGERGFPGLPGPSGEPGKQGPS-OH; N-terminus and C-terminus assumed) | 2509.11 µg |
